Measurements taken from the supplement of paper PMC10307832.

How the values were obtained:
Experiment in all cases: relative viability (nuclei count vs DMSO), 5 days (fraction); higher = more cells survive
[1] = compound: CC1=C(C(=O)N2C=CSC2=N1)CCN3CCC(=C(C4=CC=CC=C4)C5=CC=C(C=C5)F)CC3
How it was run: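 Five library-drug doses, separated by factors of √10, were pinned into 1536-well plates holding lung cancer cell lines after an overnight stay at 37 °C. Cells were fixed, permeabilised and Hoechst-stained in one step after 5 days without medium change, then imaged at 4×. Viability compares treated-well with vehicle-well nuclei, counted in MetaXpress, as a median across plates. Passing plates had control CV below 25% and at least one doubling.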

[2] = compound: CC1=C(C(=O)N2C=CSC2=N1)CCN3CCC(=C(C4=CC=CC=C4)C5=CC=C(C=C5)F)CC3 + NC(=O)Nc1cc(-c2cccc(F)c2)sc1C(=O)N[C@H]1CCCNC1 [AZD7762] (partner 0.2 µM)
How it was run: (§1)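 Values are medians from duplicate plates. Each reflects relative viability, defined as the nuclei count of treated wells over that of vehicle wells. Lung cancer cell lines in 1536-well plates were pin-tool dosed one day after seeding with one drug alone or with a fixed anchor-drug dose plus five library-drug doses (not always all listed) in √10 steps, then fixed, stained and imaged at 4× after 5 days.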

[3] = compound: CC1=C(C(=O)N2C=CSC2=N1)CCN3CCC(=C(C4=CC=CC=C4)C5=CC=C(C=C5)F)CC3 + CC(=O)Nc1cccc(-n2c(=O)n(C3CC3)c(=O)c3c(Nc4ccc(I)cc4F)n(C)c(=O)c(C)c32)c1 [Trametinib] (partner 0.02 µM)
How it was run: as §1

[4] = compound: CC1=C(C(=O)N2C=CSC2=N1)CCN3CCC(=C(C4=CC=CC=C4)C5=CC=C(C=C5)F)CC3 + Cc1cc(Nc2cc(N3CCN(C)CC3)nc(Sc3ccc(NC(=O)C4CC4)cc3)n2)n[nH]1 [Tozasertib] (partner 0.1 µM)
How it was run: as §1

Cell Line	relative viability ([1]; 0.08 µM)	relative viability ([1]; 0.253 µM)	relative viability ([1]; 0.8 µM)	relative viability ([1]; 2.53 µM)	relative viability ([1]; 8 µM)	relative viability ([2]; first compound 0.08 µM)	relative viability ([2]; first compound 0.253 µM)	relative viability ([2]; first compound 0.8 µM)	relative viability ([2]; first compound 2.53 µM)	relative viability ([2]; first compound 8 µM)	relative viability ([3]; first compound 0.08 µM)	relative viability ([3]; first compound 0.253 µM)	relative viability ([3]; first compound 0.8 µM)	relative viability ([3]; first compound 2.53 µM)	relative viability ([3]; first compound 8 µM)	relative viability ([4]; first compound 0.08 µM)	relative viability ([4]; first compound 0.253 µM)	relative viability ([4]; first compound 0.8 µM)	relative viability ([4]; first compound 2.53 µM)	relative viability ([4]; first compound 8 µM)
LU99A	1.13	0.99	0.88	0.972	0.89	0.345	0.367	0.403	0.398	0.294	0.584	0.522	0.586	0.502	0.353	0.299	0.272	0.268	0.307	0.197
NCI-H1755	0.926	0.998	1.04	1.02	0.777	0.465	0.446	0.434	0.508	0.418	0.751	0.716	0.794	0.778	0.595	0.553	0.614	0.604	0.547	0.421
NCI-H1437	0.918	1.02	1.02	1.09	0.775	1.25	1.32	1.21	1.14	1.04	0.385	0.56	0.588	0.601	0.28	0.399	0.35	0.433	0.43	0.36
SW 900	0.89	1.02	0.883	1.04	0.595	0.517	0.666	0.656	0.737	0.367	0.821	1.18	0.855	0.614	0.497	0.539	0.636	0.606	0.602	0.351
NCI-H2085	1	1.07	1.04	0.973	0.82	1.06	1.29	0.92	1.03	0.89	0.484	0.52	0.491	0.66	0.452	0.896	0.735	0.747	0.844	0.702
RERF-LC-KJ	0.932	1.01	0.964	0.989	0.662	0.636	0.936	1.15	0.945	0.584	0.833	0.893	0.837	0.794	0.578	0.432	0.462	0.518	0.426	0.452
LOU-NH91	1.01	0.927	0.973	1.04	0.911	0.763	0.714	0.833	0.84	0.691	0.776	0.793	0.794	0.869	0.679	0.7	0.6	0.688	0.701	0.605
NCI-H322M	0.89	0.91	0.877	1.09	1.08	0.601	0.606	0.563	0.516	0.543	0.478	0.424	0.558	0.604	0.469	0.487	0.468	0.443	0.561	0.529
NCI-H1734	0.975	1.08	0.976	0.955	0.62	0.545	0.487	0.475	0.549	0.368	0.741	0.598	0.691	0.688	0.512	0.253	0.237	0.266	0.27	0.234
HOP-62	1.01	1.02	0.988	0.946	0.577	0.445	0.51	0.522	0.534	0.323	0.34	0.365	0.37	0.422	0.225	0.402	0.369	0.305	0.323	0.258
HCC-366	0.852	1.02	1.06	1.05	0.502	0.302	0.317	0.25	0.23	0.211	0.422	0.384	0.377	0.404	0.216	0.103	0.123	0.103	0.0901	0.0622
LCLC-103H	1.04	1.06	0.957	1.04	0.796	0.923	0.766	0.781	0.822	0.655	0.672	0.645	0.68	0.743	0.549	0.437	0.449	0.451	0.486	0.532
NCI-H358	0.802	0.921	0.978	1.2	0.639	0.555	0.487		0.462	0.477	0.12	0.121	0.127	0.133	0.136	0.0851	0.0942	0.0998	0.129	0.112
NCI-H1915	1.07	1	1.01	1.01	0.732	0.714	0.802	0.662	0.75	0.518	0.331	0.326	0.322	0.283	0.261	0.438	0.442	0.444	0.432	0.318
NCI-H1666	0.936	0.941	0.978	1.06	0.815	0.787	0.819	0.847	0.946	0.673	0.76	0.891	0.9	0.985	0.717	0.596	0.591	0.655	0.642	0.493
LC-2-ad	1.09	0.994	0.94	1.04	0.865	0.777	0.725	0.866	0.966	0.613	0.943	0.98	0.938	0.95	0.606	0.489	0.487	0.468	0.425	0.418
HCC-44	1.07	1.04	0.997	1.15	0.888	1.04	1.04	1.08	1.17	1.06	1.13	1.12	1.13	1.01	1.04	0.855	1.33		0.896	0.525
HCC-827	1.02	1.1	1.04	1.05	0.943	0.16	0.214	0.236	0.224	0.209	0.483	0.503	0.501	0.62	0.53	0.43	0.396	0.389	0.472	0.399
NCI-H727	0.712	1.03	0.896	1.06	0.687	0.561	0.744	0.715	0.575	0.553	0.342	0.365	0.366	0.397	0.39	0.511	0.589	0.625	0.739	0.598
NCI-H596	1.02	0.964	0.981	0.952	0.852	1.18	0.913	1.2	1.08	0.965	0.703	0.815	0.913	0.863	0.708	0.757	0.757	1.14	0.877	0.516
NCI-H2087	0.878	1.22	1.13	0.933	0.62	1.21	1.36	1.58	1.24	0.506	0.177	0.211	0.256	0.255	0.705	0.298	0.245	0.276	0.242	0.23
NCI-H650	0.853	0.963	0.904	1.1	0.816	1.07	0.998	0.94	1.04	0.805	0.997	0.891	0.986	1.07	0.932	0.695	0.801	0.748	0.723	0.689
NCI-H522	1.15	1.02	0.834	0.863	0.774	0.927	0.874	0.789	0.721	0.747	0.758	0.74	0.7	0.758	0.778	0.551	0.92	0.555	0.523	0.583
A-427	0.983	1.08	0.945	1.04	0.939	0.675	0.678	0.67	0.633	0.674	0.762	0.686	0.712	0.818	0.681	0.179	0.19	0.175	0.204	0.21
HCC-78	0.833	1.08	0.943	0.954	0.806	0.691	0.71	0.58	0.662	0.567	0.818	0.837	0.941	0.727	0.616	0.402	0.468	0.451	0.345	0.303
NCI-H441	0.736	1.06	1.15	1.05	0.593	0.859	1.12	1.23	1.07	0.671	0.423	0.404	0.445	0.541	0.372	0.67	0.754	0.657	0.688	0.498
NCI-H23	1.06	1.06	0.857	0.964	0.718	0.279	0.269	0.234	0.248	0.229	0.38	0.343	0.387	0.368	0.22	0.365	0.386	0.214	0.307	0.316
NCI-H1993	0.972	0.816	0.862	1.03	0.866	0.501	0.632	0.726	0.73	0.63	0.494	0.364	0.501	0.511	0.513	0.627	0.502	0.557	0.64	0.495
NCI-H2405	0.967	0.975	0.99	1.11	0.82	0.901		0.725	0.74	0.55	0.711		0.676	0.742	0.464	0.777	0.767	0.749	0.601	0.618
